For series [1] the following is noted: in vivo; cited from earlier work.
For series [2] the following is noted: in vivo; cited from earlier work. This is another data set of the same source.
For series [3] the following is noted: bolus IV administration, cited from earlier work.
The conditions of series [4]: continuous infusion, outpatient setting, without daily albumin; cited from earlier work.
The conditions of series [5]: administered acutely as a single bolus dose; cited from earlier work.
On the set-up of series [6]: species or system human. Conditions: in vivo. On the procedure:
Patient #4, who was one of 6 patients treated with terlipressin administered as a continuous infusion in our previous Phase 2a trial, was a person with recurrent ascites due to cirrhosis despite taking the […] spironolactone and furosemide. Terlipressin, furosemide, and serum sodium levels of […] are recorded in FIG. 4. According to protocol this patient began treatment with terlipressin at an initial dose of 2 mg/day who was escalated to a dose of 3 mg/day on Day 5. Serum sodium gradually declined over time reaching a reduction of 10 mmol/L on Day 5 at which point the patient stopped taking furosemide. Serum sodium continued to decline and spironolactone was stopped for two days which had no impact on declining serum sodium. Terlipressin infusion was stopped after 9 days of treatment and serum sodium rebounded after 2 days of drug cessation.
Additionally, one patient in our previously conducted Phase 2a trial (n=6) similarly developed asymptomatic hyponatremia in response to terlipressin administration.
In searching for a commonality between the three patients that experienced hyponatremia in response to terlipressin treatment in the current trial it was noted that the three patients were taking daily gabapentin (Patient #1 and 2) or pregabalin (Patient #3) though none of the other 7 patients randomized to treatment with terlipressin were taking either of these medications. Moreover, the one patient out of six who developed hyponatremia in response to terlipressin in the previous Phase 2a trial was also taking gabapentin.

The conditions of series [7]: human, in vivo; cited from earlier work.
Series [8] can be described thus: ongoing clinical trial of terlipressin administered as a continuous infusion in patients with cirrhosis and refractory ascites (serum sodium, hyponatremia). Conditions: human, in vivo. As for the experimental part: The following clinical observations were made in an ongoing clinical trial evaluating the safety and efficacy of terlipressin, administered as a continuous infusion, in patients with cirrhosis and refractory ascites. In FIGS. 1-4, “D” stands for “Day” and the notation “Dn” where n is an integer refers to the number of days after the baseline sodium level was measured. The notation “D+N” where N is an integer refers to the number of days after administration of terlipressin was stopped.
Patient #1, a patient with cirrhosis due to NASH and recurrent ascites that was not responding to treatment with the diuretic furosemide initiated infusion with terlipressin (3 mg/day) on Day 1. Terlipressin dose (mg/day), furosemide daily dose, and serum sodium levels of the Patient #1 are recorded in FIG. 1. After 6 days of treatment with terlipressin at a dose of 3 mg/day the dose of terlipressin was escalated to 4 mg/day as per protocol. A modest reduction in serum sodium of 3 mmol/L from baseline was noted before the dose increase. After 7 days of treatment with 4 mg/day serum sodium decreased an additional 8 mmol/L so that there was a total reduction of 11 mmol/L in the 13 days of treatment versus baseline (128 vs 139 mmol/L). […] Terlipressin infusion was discontinued.
Patient #2, a person with alcoholic cirrhosis and recurrent ascites who could not be treated with diuretics began treatment with terlipressin at a dose of 3 mg/day. The daily terlipressin dose and serum sodium levels of the Patient #2 are recorded in FIG. 2.
Patient #3, a person with cirrhosis due to NASH, with uncontrolled ascites despite ongoing treatment with the diuretics furosemide and spironolactone, initiated treatment with terlipressin administered as a continuous intravenous infusion at a dose of 3 mg/day. Terlipressin dose (mg/day), furosemide daily dose, and serum sodium levels of the Patient #3 are recorded in FIG. 3. […] Though the patient was asymptomatic the patient was directed to go to the Emergency room. […]

The conditions of series [9]: administered over 14 days with daily albumin to HRS patients; cited from earlier work.
The conditions of series [10]: human, in vivo; cited from earlier work. The source holds these as a separate data set.
The conditions of series [11]: in vivo; cited from earlier work. The source holds these as a separate data set.

Positions of bridges follow the written chain, without caps; N, C: chain ends. Residues, ends and D or L forms follow the SMILES beside them.

Consider `NC(=O)CC[C@@H]1NC(=O)[C@H](Cc2ccccc2)NC(=O)[C@H](Cc2ccc(O)cc2)NC(=O)CCSSC[C@@H](C(=O)N2CCC[C@H]2C(=O)N[C@H](CCCN=C(N)N)C(=O)NCC(N)=O)NC(=O)[C@H](CC(N)=O)NC1=O` [desmopressin], for which the “incidence of desmopressin-induced hyponatremia” value in series [1] is 7.6%.
Regarding `NCC1(CC(=O)O)CCCCC1` [gabapentin], the “risk of hyponatremia compared with other anti-epilepsy drugs” value in series [2] was “lowest risk of hyponatremia among anti-epilepsy drugs”.
As for `NCCCC[C@H](NC(=O)[C@@H]1CCCN1C(=O)[C@@H]1CSSC[C@H](NC(=O)CNC(=O)CNC(=O)CN)C(=O)N[C@@H](Cc2ccc(O)cc2)C(=O)N[C@@H](Cc2ccccc2)C(=O)N[C@@H](CCC(N)=O)C(=O)N[C@@H](CC(N)=O)C(=O)N1)C(=O)NCC(N)=O` [terlipressin] (H-GGGCYFQNCPKG-NH2; disulfide 4-9), the “hours in which V2 mediated antidiuretic effects can predominate” value in series [3] (between bolus doses) is 4 to 6 h. The “duration of V1-mediated pharmacodynamic effects” value in series [3] is 3 to 4 h. In addition, in [4], the “effect on renal function and ascites” value is “improve renal function and reduce ascites”; the “effect on serum sodium concentrations” value is on record as “improve serum sodium concentrations”. The antidiuretic effect result in series [5] is “mediates antidiuretic effects”. In [6], the “patients who developed asymptomatic hyponatremia in response to terlipressin” value is “one patient”, the “relatedness of severe hyponatremia to treatment” value is listed as “considered related to terlipressin treatment”, the “serum sodium after drug cessation” value was “rebounded” and the “symptoms of severe hyponatremia” value is reported as “asymptomatic”. In series [7], the “patients with severe hyponatremia (reduction in serum sodium of >10 mmol/L)” value is recorded as “more than 12%” and the “patients with severe hyponatremia who experience neurological manifestations” value is reported as “at least 30%”. In series [8], the “additional decrease in serum sodium” value was 4 mmol/L, the “relatedness of hyponatremia to treatment” value is on record as “considered related to terlipressin” and the “total reduction in serum sodium versus baseline” value was 11 mmol/L. Further, the “effect on low serum sodium” value in series [9] is given as “can even correct low serum sodium”. Also, in series [10], the “patients who experienced hyponatremia defined as ≥5 mmol decrease in serum sodium” value is 67%. The incidence of hyponatremia in series [11] was below 5%.

Source of the values: patent US12685756B2, “Methods of treating disease with Terlipressin” (BIOVIE INC., priority 2022, dated 2026).
